Measurements published in publication PMC11378297, “Discovery and Profiling of New Multimodal Phenylglycinamide Derivatives as Potent Antiseizure and Antinociceptive Drug Candidates” (ACS Chemical Neuroscience, 2024).

Assays:
[1] = system: maximal electroshock (MES) seizures, mice; assay: maximal electroshock (MES) seizure test; assay type: in vivo; settings: Mus musculus, ip; for responders at 100 mg/kg: 0.5 h, read-out: MES: number of mice protected/number of mice tested; for ED50: mice, pretreatment time 0.5 h
Source text: (§6) Both the aforementioned parameters (ED50 and TD50) enabled the calculation of protective indexes (PIs), which reflect the comparative the benefit–risk ratio of these experimental therapeutic agents.
(§7) Four mice per group were randomly assigned to each experimental group in the initial screening experiments (each mouse was used just once). Four groups, each with eight animals, received injections of different doses of the investigated substances in order to determine the ED50 or TD50 values. The PIs for the compounds investigated and reference ASMs were calculated by dividing the TD50 value, as determined in the chimney test by the respective ED50 value, as determined in the MES, scPTZ, or 6 Hz (32 mA or 44 mA) tests (PI = TD50/ED50). The PIs are a measure of the potential therapeutic window of the tested agent.
(§8) All substances were suspended in Tween 80 (1% aqueous solution) and administered i.p. as a single injection at a volume of 10 mL/kg. On each day of experimentation, fresh solutions were prepared.

[2] = system: 6 Hz (32 mA) seizures, mice; assay: 6 Hz (32 mA) psychomotor seizure test; assay type: in vivo; settings: Mus musculus, ip, mice; for responders at 100 mg/kg: 100 mg/kg i.p., 0.5 h, read-out: 6 Hz (32 mA): number of mice protected/number of mice tested (converted); for ED50: pretreatment time 0.5 h;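 as to all read-outs here: compounds given as one i.p. dose suspended in 1% aqueous Tween 80, with the 6 Hz (32 mA) model considered to reflect focal epilepsy in humans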
Source text: as §6, §7, §8

[3] = chimney test (motor coordination, TD50); settings: mouse, in vivo, ip, mice
Source text: as §6, §7, §8

[4] = system: neuromuscular strength, mice; assay: grip strength test; assay type: in vivo, mouse
Protocol: Prior to the ivPTZ test, a grip strength test was conducted to evaluate the tested eutomers’ acute impact on neuromuscular strength.
30 min prior to the testing, eutomers (R)-31, (R)-32, and (R)-33 were given i.p. after being suspended in a 1% Tween 80 solution. To reduce the number of animals utilized, neuromuscular strength measurements were made right before the seizure threshold test. The grip-strength test and the timed ivPTZ test experimental protocols were covered in full elsewhere.[87]
Figure S3. Effects of (R)-31, (R)-32, and (R)-33 on neuromuscular strength in mice. The compounds were administered i.p., 30 min before the test. Control animals received vehicle. Data are presented as mean ± SD grip strengths in millinewtons per gram of mouse body weight (mN/g); n = 10 animals. The statistical significance was evaluated using the Student’s t test (GraphPad Prism 8). […]

[5] = system: Na+ channel (site 2); assay: Na+ channel (site 2) radioligand binding; settings: 10 μM, rat cerebral cortex
Protocol: (§1) The current body of literature consistently reports that both sodium (Navx) and Cav1.2 calcium ion channels can be involved in the pathogenesis of epilepsy[67]−[69] and neuropathic pain.[70]−[73] […] Therefore, we performed binding and functional studies toward sodium (site 2) and calcium Cav1.2 channels at concentrations of 10 μM for (R)-31−(R)-33.
(§2) Using previously described testing methodologies, binding/functional tests were conducted on a commercial basis at Eurofins Laboratories (Poitiers, France) and Eurofins Panlabs Discovery Services Taiwan, Ltd. (New Taipei City, Taiwan); see Table S9 for more information.
(§3) Table S9. Radioligand binding and functional assays. […]
(§4) Assays were performed commercially in Eurofins Laboratories (Poitiers, France) or Eurofins Panlabs Discovery Services
(§5) Taiwan, Ltd. (New Taipei City, Taiwan).

[6] = molecular target: T1, Cav1.2 (h) calcium ion channel (Homo sapiens, UniProt Q13936); assay: Cav1.2 (h) calcium ion channel cell-based antagonist calcium flux assay; settings: HEK293, human recombinant HEK-293 cell, read-out: % inhibition of control agonist response
T1 construct: Eurofins
Protocol: as §1, §2
Table S9. Radioligand binding and functional assays.
Cav1.2 (L-type) (h) calcium ion channel cell-based antagonist calcium flux assay […]
as §4, §5

[7] = molecular target: T2, TRPV1 (VR1) (h) (Homo sapiens, UniProt Q8NER1); assay: TRPV1 (VR1) (h) (antagonist effect); assay type: cell-based; settings: human recombinant CHO cells, antagonist effect; for Kb: read-out: KB (dissociation constant)
T2 construct: host or cells: CHO cells
Protocol: Further in vitro functional studies confirmed TRPV1 antagonist activity for (R)-31–(R)-33.
as §2, §3
TRPV1 (VR1) (h) (antagonist effect) […]
as §4, §5

[8] = molecular target: T3, CYP2D6 (Homo sapiens, UniProt P10635); assay: CYP2D6 P450-Glo assay; assay type: in vitro ADME
T3 construct: purchased Promega (Madison, WI, USA)
Protocol: The inhibition effect of enantiomers on CYP2C9 was also determined, but only at the highest concentrations (Figure 10C). In summary, the potential for DDIs of the tested enantiomers in comparison to the reference CYP inhibitors was estimated as very low.
Figure 10 Influence of (R)-31, (R)-32, and (R)-33 on: CYP3A4 activity (A) and the reference inhibitor ketoconazole (KE), CYP2D6 activity (B) and the reference inhibitor quinidine (QD), CYP2C9 activity (C) and the reference inhibitor sulfaphenazole (SE). The results are presented as means + SD. Statistical significance was evaluated by one-way ANOVA, followed by Bonferroni’s multiple comparison post hoc test (Graph Pad Prism 8.0.1 software) *p < 0.05, **p < 0.01, ***p < 0.001, ****p < 0.0001.
All assays and protocols used for the evaluation of compounds ADME-Tox parameters were described previously.[35]−[38],[95]−[98] The precoated PAMPA Plate System Gentest was utilized to estimate passive permeability (Tewksbury, MA, USA). HLMs, obtained from Sigma-Aldrich (St. Louis, MO, USA), were used for the metabolic stability assay. The most likely sites of metabolism could be identified, thanks to the MetaSite 6.0.1 program from Molecular Discovery Ltd. (Hertfordshire, UK), which was used to support the microsome experiments. The impact on recombinant human cytochromes CYP3A4, CYP2D6, and CYP2C9 was examined using CYP3A4, CYP2D6, and CYP2C9 P450-Glo kits supplied by Promega (Madison, WI, USA) in order to anticipate possible DDIs. […] The vitality of the cells was assessed using the CellTiter 96 AQueous Non-Radioactive Cell Proliferation Assay (Promega, Madison, WI, USA), following a 48 h incubation period with either the reference medication, doxorubicin (DOX), or serial dilutions of the investigated compounds. Using an EnSpire PerkinElmer microplate reader (Waltham, MA, USA), the luminescent signal and absorbances (measured at 490 nm) in DDIs and safety assays were determined. […]

T3 sequence (P10635 whole entry): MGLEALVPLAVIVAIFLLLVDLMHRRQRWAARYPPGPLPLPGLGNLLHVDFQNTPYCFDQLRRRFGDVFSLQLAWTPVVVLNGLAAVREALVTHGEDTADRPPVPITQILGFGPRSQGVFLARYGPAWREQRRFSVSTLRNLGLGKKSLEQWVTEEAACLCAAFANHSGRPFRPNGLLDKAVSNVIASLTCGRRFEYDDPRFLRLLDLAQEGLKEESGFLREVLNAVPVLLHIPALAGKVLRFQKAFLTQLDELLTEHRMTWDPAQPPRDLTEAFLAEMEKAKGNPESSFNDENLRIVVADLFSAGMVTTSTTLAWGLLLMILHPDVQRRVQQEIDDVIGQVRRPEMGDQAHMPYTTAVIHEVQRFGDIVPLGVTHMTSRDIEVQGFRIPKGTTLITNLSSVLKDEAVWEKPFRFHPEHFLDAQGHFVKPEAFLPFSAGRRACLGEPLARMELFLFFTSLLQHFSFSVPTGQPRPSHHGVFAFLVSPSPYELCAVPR
T1 sequence (Q13936 whole entry): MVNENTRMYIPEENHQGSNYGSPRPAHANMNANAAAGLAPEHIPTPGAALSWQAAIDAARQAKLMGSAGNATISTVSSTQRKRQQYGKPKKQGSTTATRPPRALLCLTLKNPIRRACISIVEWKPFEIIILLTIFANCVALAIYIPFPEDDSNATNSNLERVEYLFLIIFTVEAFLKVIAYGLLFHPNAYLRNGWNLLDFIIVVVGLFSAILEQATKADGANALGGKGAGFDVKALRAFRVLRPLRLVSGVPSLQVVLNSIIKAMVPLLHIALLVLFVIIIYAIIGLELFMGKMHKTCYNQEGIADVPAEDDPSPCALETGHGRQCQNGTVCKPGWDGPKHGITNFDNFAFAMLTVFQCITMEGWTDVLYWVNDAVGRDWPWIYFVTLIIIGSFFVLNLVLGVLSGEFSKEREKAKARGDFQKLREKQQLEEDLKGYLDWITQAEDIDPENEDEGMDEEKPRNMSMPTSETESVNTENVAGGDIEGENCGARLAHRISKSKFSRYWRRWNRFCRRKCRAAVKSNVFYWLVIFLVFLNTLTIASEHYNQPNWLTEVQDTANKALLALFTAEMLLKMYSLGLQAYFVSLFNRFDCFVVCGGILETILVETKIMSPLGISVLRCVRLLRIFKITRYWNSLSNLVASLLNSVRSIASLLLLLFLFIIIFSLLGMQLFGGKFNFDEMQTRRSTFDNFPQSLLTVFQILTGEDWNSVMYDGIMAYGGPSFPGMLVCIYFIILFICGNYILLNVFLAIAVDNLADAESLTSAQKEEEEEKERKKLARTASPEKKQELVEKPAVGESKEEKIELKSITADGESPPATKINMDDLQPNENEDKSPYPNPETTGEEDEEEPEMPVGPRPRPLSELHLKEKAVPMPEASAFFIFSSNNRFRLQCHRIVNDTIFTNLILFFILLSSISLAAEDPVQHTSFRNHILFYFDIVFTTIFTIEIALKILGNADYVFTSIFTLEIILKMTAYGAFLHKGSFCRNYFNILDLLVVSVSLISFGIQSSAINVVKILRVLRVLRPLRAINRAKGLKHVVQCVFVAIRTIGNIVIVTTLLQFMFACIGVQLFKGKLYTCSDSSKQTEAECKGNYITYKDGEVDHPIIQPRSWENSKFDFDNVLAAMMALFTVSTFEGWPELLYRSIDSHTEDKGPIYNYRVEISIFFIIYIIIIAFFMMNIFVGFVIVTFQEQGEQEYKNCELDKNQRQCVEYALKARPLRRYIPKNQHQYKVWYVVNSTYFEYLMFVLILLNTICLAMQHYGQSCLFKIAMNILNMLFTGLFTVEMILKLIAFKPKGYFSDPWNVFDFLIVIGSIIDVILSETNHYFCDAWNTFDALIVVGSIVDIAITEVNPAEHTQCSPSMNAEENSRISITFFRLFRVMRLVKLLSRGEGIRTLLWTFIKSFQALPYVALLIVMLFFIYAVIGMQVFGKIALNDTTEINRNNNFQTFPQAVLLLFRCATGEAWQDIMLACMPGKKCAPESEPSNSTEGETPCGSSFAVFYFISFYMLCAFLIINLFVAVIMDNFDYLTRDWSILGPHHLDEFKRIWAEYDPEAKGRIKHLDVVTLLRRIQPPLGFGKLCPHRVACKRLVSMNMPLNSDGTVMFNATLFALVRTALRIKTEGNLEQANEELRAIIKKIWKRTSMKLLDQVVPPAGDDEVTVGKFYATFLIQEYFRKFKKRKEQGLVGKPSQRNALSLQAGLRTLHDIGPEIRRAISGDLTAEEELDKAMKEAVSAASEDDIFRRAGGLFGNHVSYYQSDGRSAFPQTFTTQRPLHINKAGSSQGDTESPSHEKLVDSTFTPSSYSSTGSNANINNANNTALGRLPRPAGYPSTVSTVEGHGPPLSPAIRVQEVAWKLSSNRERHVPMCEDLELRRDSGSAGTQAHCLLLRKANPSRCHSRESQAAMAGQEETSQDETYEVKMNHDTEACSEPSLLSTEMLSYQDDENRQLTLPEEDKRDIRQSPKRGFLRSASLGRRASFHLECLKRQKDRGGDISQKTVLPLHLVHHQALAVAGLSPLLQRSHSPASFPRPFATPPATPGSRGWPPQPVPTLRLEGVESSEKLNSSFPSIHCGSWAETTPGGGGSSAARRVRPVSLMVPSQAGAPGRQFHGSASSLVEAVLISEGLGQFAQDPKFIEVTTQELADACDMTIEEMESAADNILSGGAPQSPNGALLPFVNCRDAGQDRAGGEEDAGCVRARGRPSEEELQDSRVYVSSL
T1 sequence (Q08289 whole entry partner): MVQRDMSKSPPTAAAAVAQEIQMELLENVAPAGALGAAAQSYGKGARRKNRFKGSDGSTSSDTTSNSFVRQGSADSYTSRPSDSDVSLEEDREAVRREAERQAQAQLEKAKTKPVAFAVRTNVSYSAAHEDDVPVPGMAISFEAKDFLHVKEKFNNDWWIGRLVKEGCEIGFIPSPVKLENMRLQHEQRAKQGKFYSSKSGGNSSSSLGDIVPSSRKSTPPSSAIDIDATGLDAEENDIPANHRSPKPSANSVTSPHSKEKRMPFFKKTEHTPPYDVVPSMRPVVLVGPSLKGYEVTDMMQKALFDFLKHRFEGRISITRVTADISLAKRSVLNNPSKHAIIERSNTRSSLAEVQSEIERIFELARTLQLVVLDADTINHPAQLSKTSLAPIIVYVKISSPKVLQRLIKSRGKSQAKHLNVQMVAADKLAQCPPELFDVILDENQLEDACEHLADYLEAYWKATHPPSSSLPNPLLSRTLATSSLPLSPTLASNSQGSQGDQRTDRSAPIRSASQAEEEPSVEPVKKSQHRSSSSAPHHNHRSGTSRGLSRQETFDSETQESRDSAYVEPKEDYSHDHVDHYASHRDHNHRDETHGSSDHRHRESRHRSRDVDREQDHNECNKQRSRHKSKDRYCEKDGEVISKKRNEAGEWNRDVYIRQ
T1 sequence (P54289 25-946 partner limits assumed): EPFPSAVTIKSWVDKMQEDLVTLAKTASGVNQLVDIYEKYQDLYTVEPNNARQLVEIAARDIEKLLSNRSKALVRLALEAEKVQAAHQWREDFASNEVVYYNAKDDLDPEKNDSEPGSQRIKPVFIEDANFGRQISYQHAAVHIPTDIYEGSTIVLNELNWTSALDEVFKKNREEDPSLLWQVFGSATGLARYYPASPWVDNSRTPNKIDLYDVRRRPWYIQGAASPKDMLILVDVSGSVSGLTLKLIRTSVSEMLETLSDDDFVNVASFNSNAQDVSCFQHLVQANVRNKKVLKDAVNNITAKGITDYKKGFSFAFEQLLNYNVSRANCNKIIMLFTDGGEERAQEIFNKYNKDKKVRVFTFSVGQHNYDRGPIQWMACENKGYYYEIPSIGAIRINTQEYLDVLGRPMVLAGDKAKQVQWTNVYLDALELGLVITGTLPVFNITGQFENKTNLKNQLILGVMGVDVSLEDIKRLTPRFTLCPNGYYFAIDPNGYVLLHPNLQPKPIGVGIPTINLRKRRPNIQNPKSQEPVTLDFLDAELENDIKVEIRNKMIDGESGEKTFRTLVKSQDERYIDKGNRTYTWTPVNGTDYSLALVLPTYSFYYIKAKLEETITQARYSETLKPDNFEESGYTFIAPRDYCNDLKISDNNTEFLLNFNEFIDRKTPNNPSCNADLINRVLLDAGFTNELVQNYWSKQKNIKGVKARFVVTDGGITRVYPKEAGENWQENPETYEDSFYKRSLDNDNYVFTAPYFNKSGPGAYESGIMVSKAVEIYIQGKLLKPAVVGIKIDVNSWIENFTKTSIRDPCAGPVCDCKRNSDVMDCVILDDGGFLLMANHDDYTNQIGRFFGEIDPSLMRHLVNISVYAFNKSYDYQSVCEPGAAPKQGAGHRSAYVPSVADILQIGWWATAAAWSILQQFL
T1 sequence (P54289 947-1103 partner limits assumed): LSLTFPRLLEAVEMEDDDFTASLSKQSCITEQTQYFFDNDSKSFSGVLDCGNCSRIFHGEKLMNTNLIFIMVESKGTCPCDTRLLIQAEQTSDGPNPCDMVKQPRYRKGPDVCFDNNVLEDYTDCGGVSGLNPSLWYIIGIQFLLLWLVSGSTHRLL

Work on `CC(=O)N[C@@H](C(=O)N1CCN(c2cccc(C(F)(F)F)c2)CC1)c1ccccc1` [(R)-31, (R)-N-(2-Oxo-1-phenyl-2-(4-(3-(trifluoromethyl)phenyl)piperazin-1-yl)ethyl)acetamide] yielded a responders at 100 mg/kg [1] of 100%, an ED50 [1] of 98.4 mg/kg and a responders at 100 mg/kg [2] of 100%. The ED50 [2] was 34.5 mg/kg, the TD50 at 0.5 h [3] was 174 mg/kg and the “effect on neuromuscular strength (grip strength test)” value (from here on “effect on neuromuscular strength”) ([4]; 50 mg/kg i.p.) was “did not produce any significant effects”. For the same compound, the “effect on neuromuscular strength” value ([4]; 100 mg/kg i.p.) was “did not produce any significant effects”, the “% inhibition of control specific binding” value [5] was 33.9 (10) % and the inhibition at 10 µM [6] was 75%. The IC50 [7] was 3500 nM, the Kb [7] was 460 nM and the “effect on CYP2D6 activity” value ([8]; 1 and 10 μM) was “weak activation”.

`CC(=O)N[C@@H](C(=O)N1CCN(c2cccc(OC(F)(F)F)c2)CC1)c1ccccc1` [(R)-32, (R)-N-(2-Oxo-1-phenyl-2-(4-(3-(trifluoromethoxy)phenyl)piperazin-1-yl)ethyl)acetamide] showed a responders at 100 mg/kg [1] of 100%, an ED50 [1] of 73.9 mg/kg and a responders at 100 mg/kg [2] of 100%. The ED50 [2] was 18.8 mg/kg, the TD50 at 0.5 h [3] was 114 mg/kg and the “effect on neuromuscular strength” value ([4]; 50 mg/kg i.p.) was “did not produce any significant effects”. For the same compound, the “% inhibition of control specific binding” value [5] was 40.7 (10) %, the inhibition at 10 µM [6] was 31% and the IC50 [7] was 11000 nM. The Kb [7] was 1400 nM and the “effect on CYP2D6 activity” value ([8]; 1 and 10 μM) was “weak activation”.

For `CC(=O)N[C@@H](C(=O)N1CCN(c2cccc(SC(F)(F)F)c2)CC1)c1ccccc1` [(R)-33, (R)-N-(2-Oxo-1-phenyl-2-(4-(3-((trifluoromethyl)thio)phenyl)piperazin-1-yl)ethyl)acetamide], the responders at 100 mg/kg [1] was 100%, the ED50 [1] was 75.7 mg/kg and the responders at 100 mg/kg [2] was 100%. The ED50 [2] was 23.9 mg/kg, the TD50 at 0.5 h [3] was 146 mg/kg and the “effect on neuromuscular strength” value ([4]; 50 mg/kg i.p.) was “did not produce any significant effects”. The “% inhibition of control specific binding” value [5] was 63.2 (10) %, the inhibition at 10 µM [6] was 49% and the IC50 [7] was 13000 nM. The Kb [7] was 1600 nM and the “effect on CYP2D6 activity” value ([8]; 25 μM) was “slightly inhibited”.
